Test results taken from ChEMBL document CHEMBL3045576, “Azadirachtin avoidance by larvae and adult females of the tomato leafminer Tuta absoluta” (2013).
The source made the active and inactive calls. The calls are words filed in the database; no cut-off is given here.

Key:
[1] = system: Tuta absoluta; assay: Egg-laying avoidance activity against non-sexed adult stage of Tuta absoluta Araguari in compound-pretreated tomato leaves assessed as decrease in number of eggs laid at equal to and greater than LC50 concentration measured for 2 days by free-choice test; type: functional, organism-based
[2] = system: Tuta absoluta; assay: Walking avoidance activity against second-instar larval stage of Tuta absoluta Araguari in compound-pretreated tomato leaves assessed as decrease in walking time at LC10 concentration measured after 6 hr; type: functional, organism-based
[3] = system: Tuta absoluta; assay: Insecticidal activity against second-instar larval stage of Tuta absoluta in tomato leaves assessed as survival rate at 1.7 mg ai/L incubated for 5 s prior to larval infestation after 9 days (reference value: >60%); type: functional; conditions: 216 h
[4] = system: Tuta absoluta; assay: Egg-laying avoidance activity against non-sexed adult stage of Tuta absoluta Vicosa in compound-pretreated tomato leaves assessed as decrease in number of eggs laid at LC10 to LC90 concentration measured for 2 days by no-choice test; type: functional, organism-based
[5] = system: Tuta absoluta; assay: Walking avoidance activity against second-instar larval stage of Tuta absoluta Araguari in compound-pretreated tomato leaves assessed as decrease in walking time at LC50 to LC90 concentration measured after 6 hr; type: functional, organism-based
[6] = system: Tuta absoluta; assay: Resistance ratio of LC10 for Tuta absoluta Vicosa larvae to LC10 for Tuta absoluta Araguari larvae; type: functional
[7] = system: Tuta absoluta; assay: Insecticidal activity against second-instar larval stage of Tuta absoluta in tomato leaves assessed as delay in larval development at 27 mg ai/L incubated for 5 s prior to larval infestation after 9 days; type: functional, organism-based
[8] = system: Tuta absoluta; assay: Egg-laying avoidance activity against non-sexed adult stage of Tuta absoluta Vicosa in compound-pretreated tomato leaves assessed as decrease in number of eggs laid measured for 2 days by free-choice test; type: functional, organism-based
[9] = system: Tuta absoluta; assay: Resistance ratio of LC50 for Tuta absoluta Vicosa larvae to LC50 for Tuta absoluta Araguari larvae; type: functional
[10] = system: Tuta absoluta; assay: Egg-laying avoidance activity against non-sexed adult stage of Tuta absoluta Araguari in compound-pretreated tomato leaves assessed as decrease in number of eggs laid at LC10 to LC90 concentration measured for 2 days by no-choice test; type: functional, organism-based
[11] = system: Tuta absoluta; assay: Walking avoidance activity against second-instar larval stage of Tuta absoluta Vicosa in compound-pretreated tomato leaves assessed as decrease in walking time at LC50 to LC90 concentration measured after 6 hr; type: functional, organism-based
[12] = system: Tuta absoluta; assay: Walking avoidance activity against second-instar larval stage of Tuta absoluta Vicosa infested compound-pretreated filter paper assessed as effect on walking time at LC90 concentration measured for 10 min; type: functional, organism-based
[13] = system: Tuta absoluta; assay: Walking avoidance activity against fourth-instar larval stage of Tuta absoluta Araguari infested compound-pretreated filter paper assessed as effect on walking time at LC90 concentration measured for 10 min; type: functional, organism-based
[14] = system: Tuta absoluta; assay: Resistance ratio of LC90 for Tuta absoluta Vicosa larvae to LC90 for Tuta absoluta Araguari larvae; type: functional
[15] = system: Tuta absoluta; assay: Walking avoidance activity against fourth-instar larval stage of Tuta absoluta Vicosa infested compound-pretreated filter paper assessed as effect on walking time at LC90 concentration measured for 10 min; type: functional, organism-based
[16] = system: Tuta absoluta; assay: Insecticidal activity against Tuta absoluta Araguari larvae in compound-pre-treated tomato leaves assessed as mortality after 144 hr; type: functional
[17] = system: Tuta absoluta; assay: Insecticidal activity against Tuta absoluta Vicosa larvae in compound-pre-treated tomato leaves assessed as mortality after 144 hr; type: functional
[18] = system: Tuta absoluta; assay: Effect on leaf mining activity of Tuta absoluta Vicosa second-instar larvae in compound-pretreated tomato leaves assessed as length of time required to mine the leaf at LC10 to LC90 concentration; type: functional
[19] = system: Tuta absoluta; assay: Walking avoidance activity against second-instar larval stage of Tuta absoluta Vicosa in compound-pretreated tomato leaves assessed as decrease in walking time at LC10 concentration measured after 6 hr; type: functional, organism-based
[20] = system: Tuta absoluta; assay: Insecticidal activity against second-instar larval stage of Tuta absoluta in tomato leaves assessed as survival rate at 27 mg ai/L incubated for 5 s prior to larval infestation after 9 days (reference value: >60%); type: functional; conditions: 216 h
[21] = system: Tuta absoluta; assay: Walking avoidance activity against second-instar larval stage of Tuta absoluta Araguari infested compound-pretreated filter paper assessed as effect on walking time at LC90 concentration measured for 10 min; type: functional, organism-based
[22] = system: Tuta absoluta; assay: Effect on leaf mining activity of Tuta absoluta Araguari second-instar larvae in compound-pretreated tomato leaves assessed as length of time required to mine the leaf at LC10 to LC90 concentration; type: functional

SMILES: C/C=C(\C)C(=O)O[C@H]1C[C@@H](OC(C)=O)[C@@]2(C(=O)OC)CO[C@H]3[C@@H](O)[C@@](C)([C@]45O[C@@]4(C)[C@@H]4C[C@H]5O[C@@H]5OC=C[C@@]54O)[C@H]4[C@]1(CO[C@]4(O)C(=O)OC)[C@@H]32 [AZADIRACHTIN A]
- inhibition [1]: Active
- inhibition [2]: inactive
- survival at 1.7 µg/mL [3]: 25%
- inhibition [4]: inactive
- inhibition [5]: Active
- Ratio [6]: 1.65
- Activity [7]: Active
- inhibition [8]: Dose-dependent effect
- Ratio [9]: 1.8
- inhibition [10]: inactive
- inhibition [11]: Active
- Activity [12]: inactive
- Activity [13]: inactive
- Ratio [14]: 1.96
- Activity [15]: inactive
- LC10 [16]: 0.97 mgAi/L
- LC50 [16]: 5.62 mgAi/L
- LC90 [16]: 32.71 mgAi/L
- LC10 [17]: 1.59 mgAi/L
- LC50 [17]: 10.09 mgAi/L
- LC90 [17]: 64.06 mgAi/L
- Time [18]: 33.56 min
- inhibition [19]: inactive
- survival at 27 µg/mL [20]: < 4%
- Activity [21]: inactive
- Time [22]: 38.72 min
